Converted amounts (≈) assume the structure as drawn.
Experiments:
TEAD4(217-434) = TEAD4(217-434) (Homo sapiens (Human), UniProt Q15561); experiment: TEAD4 FRET; format: binding; settings: depalmitoylated, biotinylated TEAD4(217-434), FAM labelled Probe A, 120 min at 25° C.
Protocol: Compounds were dosed with a final DMSO concentration of 1% (v/v). Compound IC50 values were assessed following a 10-point, half-log10 dilution schema starting at 100 μM compound concentration. Specifically, human TEAD protein from TEAD4(217-434) was cloned into an overexpression vector, expressed as an N-terminal HIS-TEV-Avi-tagged fusion protein in E coli, and subsequently purified, then protein was chemically depalmitoylated & biotinylated. The assay was performed in 384-well LV plates (384-well black, medium binding, PS, HIBASE, GREINER #784076) and run in the presence and absence of the compound of interest. Each well of 5 μL assay mixture contained 10 mM Tris-HCl (pH 7.5), 100 mM NaCl, 0.05 mM EDTA, 1 mM TECP, 1% DMSO, 0.03% Pluronic acid F127, 20 nM dePal Avi TEAD4 (217-434)-depalmitoylated & biotinylated protein, 0.8 nM Streptavidin Terbium cryptate (CisBio #610SATLB), 625 nM FAM labelled Probe A. Reactions were incubated at 25° C. for 120 min before reading on a PHERASTAR FSX Plate Reader (337 520 490 HTRF module required) (Supplier BMP).
The data file from the PHERAstar FSX contains both the acceptor (520 nm) and donor channels (490 nm) (“Channel A”=acceptor channel (520 nm), “Channel B”=donor channel (490 nm)). The ratio of the donor and acceptor (Channel A/Channel B) is calculated within Genedata Assay Analyzer.
Probe A is 3′,6′-dihydroxy-3-oxo-N-{8-[2-(5-{2-[4-(trifluoromethyl)anilino]phenyl}-2H-tetrazol-2-yl)acetamido]octyl}-3H-spiro[[2]benzofuran-1,9′-xanthene]-5-carboxamide;

MCF7-Tead cell line = experiment: TEAD reporter assay; format: cell-based; settings: MCF7-Tead cells, luciferase activity after 24 hours
Protocol: (§1) MCF7-Tead cell line was obtained from BPS BIOSCIENCE (catalog number 60618) and was maintained in DMEM containing 10% fetal calf serum, 2 mM glutamine, and 400 μg/ml G418. Cells were grown in a humidified incubator at 37° C. with 5% CO2. Cells were distributed to flat bottom white polystyrene TC treated 384 well plates at a density of 3,500 cells/well in 30 uL. Cells were incubated for 24 hours at 37° C. with 5% CO2. Cells were acoustically dosed using an Echo 555, with compounds serially diluted in 100% DMSO. Plates were incubated for an additional 24 hours. Cells were examined for luciferase activity through the addition of 30 μL Bright-Glo luciferase (Promega catalog number E2620). Plates were incubated for 10 minutes at room temperature and luminescence was read using Tecan plate reader. The data obtained with each compound was exported to […] software to perform curve fitting analysis.

[1] = test system: MCF7-Luciferase cell line; experiment: Control reporter (MCF7-Luciferase); format: cell-based; settings: MCF7-Luciferase cells, luciferase activity after 24 hours
Protocol: (iii) Control Reporter (MCF7-Luciferase)
as §1, with “MCF7-Luciferase” for “MCF7-Tead”, “BPS BIOSCIENCE” left out, “SC050-L)” for “60618)”, “glutamine.” for “glutamine, and 400 μg/ml G418.”, “μL.” for “uL.”

[2] = Solubility (thermodynamic, shake-flask); format: physicochemical; settings: thermodynamic from solid; aqueous phosphate buffer (pH 7.4), 24 hours at 25° C.
Protocol: The thermodynamic solubility of a research compound is measured under standard conditions. It is a shake-flask approach that uses 10 mM DMSO solutions which are supplied from the Compound Managements liquid store and is a high throughput method. The dried compounds are equilibrated in an aqueous phosphate buffer (pH 7.4) for 24 hours at 25° C., the portion with the dissolved compound is then separated from the remains. The solutions are analyzed and quantified using UPLC/MS/MS, QC-samples are incorporated in each assay-run to ensure the quality of the assay.

[3] = Protein binding measurements in human plasma (Hu PPB); format: in vitro ADME; settings: equilibrium dialysis for 18 hours, fraction unbound
Protocol: The automated equilibrium dialysis assay in human plasma uses the RED (Rapid Equilibrium Dialysis) Device and sample handling. The assay generally runs over two to three days including delivery of results. After dialysis for 18 hours, plasma and buffer samples are prepared for analysis by liquid chromatography and mass spectrometry. Samples are generally tested in singlicates and quantified by LC/MSMS by using a 7-point calibration curve in plasma. The compounds are pooled together in plasma pools up to 10 compounds. Three reference compounds are used in each run, Propranolol, Metoprolol and Warfarin. Warfarin is used as a control in each pool and Propranolol and Metoprolol are placed randomly in each run. An in-house Excel macro is used for preparation of files for the robot and the mass spectrometer and is also used for the calculations of fraction unbound (fu %) in plasma.

Sequence of TEAD4(217-434) (Q15561 217-434): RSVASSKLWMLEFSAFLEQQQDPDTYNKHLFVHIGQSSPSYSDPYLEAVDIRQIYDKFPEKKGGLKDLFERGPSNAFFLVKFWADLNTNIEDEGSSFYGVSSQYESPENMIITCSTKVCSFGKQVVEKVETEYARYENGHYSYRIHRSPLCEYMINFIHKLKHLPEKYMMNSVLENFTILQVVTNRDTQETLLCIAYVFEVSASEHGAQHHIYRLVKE

SMILES | IC50 (TEAD4(217-434)) [nM] | IC50 (MCF7-Tead cell line) [nM] | IC50 [1] [nM] | solubility at 24 h [2] [µM] | Hu PPB (% free) [3] [% free]
C=CC(=O)N1CC[C@@H](c2nc(-c3ccc(C(F)(F)F)cc3)c3ccccc3n2)C1 (racemic) [Comparative Example C, 1-(3-{4-[4-(trifluoromethyl)phenyl]-2-quinazolinyl}-1-pyrrolidinyl)-2-propen-1-one, reference compound] | 55 | 260 | 22700 | 66 (≈ 26.2 µg/mL) | 1.1
C=CC(=O)N[C@H]1CCN(c2nc(-c3ccc(C(F)(F)F)cc3)nc3ccccc23)C1 (racemic) [Comparative Example D, N-(1-{2-[4-(trifluoromethyl)phenyl]-4-quinazolinyl}-3-pyrrolidinyl)acrylamide, reference compound] | 2900 | 1780 | > 31700 | 0.6 (≈ 0.247 µg/mL) | 0.2
C=CC(=O)N1CC[C@H](Nc2nnc(-c3ccc(C(F)(F)F)cc3)c3ncccc23)C1 [Example 7, (S)-1-(3-((8-(4-(trifluoromethyl)phenyl)pyrido[2,3-d]pyridazin-5-yl)amino)pyrrolidin-1-yl)prop-2-en-1-one] | 33 | 81 | 28400 | 8.6 (≈ 3.56 µg/mL) | 9.0
C=CC(=O)N1CC[C@H](Nc2nnc(-c3ccc(C(F)(F)F)cc3)c3cccnc23)C1 [Example 8, (S)-1-(3-((5-(4-(trifluoromethyl)phenyl)pyrido[2,3-d]pyridazin-8-yl)amino)pyrrolidin-1-yl)prop-2-en-1-one] | 56 | 72 | > 31700 | 32 (≈ 13.2 µg/mL) | 12.0
C=CC(=O)N1CC[C@H](Nc2nnc(-c3ccc(C(F)(F)F)cc3)c3ccccc23)C1 [Example 9, (S)-1-(3-((4-(4-(trifluoromethyl)phenyl)phthalazin-1-yl)amino)pyrrolidin-1-yl)prop-2-en-1-one] |  | 60 | > 31700 | < 0.8 | 4.7
C=CC(=O)N1CC[C@H](Nc2nnc(-c3ccc(C(F)(F)F)cc3)c3cccc(F)c23)C1 [Example 13, (S)-1-(3-((8-fluoro-4-(4-(trifluoromethyl)phenyl)phthalazin-1-yl)amino)pyrrolidin-1-yl)prop-2-en-1-one] | 41 | 30 | > 31700 | 40 (≈ 17.2 µg/mL) | 6.1
C=CC(=O)N1C[C@H](O)[C@H](Nc2nnc(-c3ccc(C(F)(F)F)cc3)c3cccc(F)c23)C1 [Example 14, 1-((3R,4S)-3-((8-fluoro-4-(4-(trifluoromethyl)phenyl)phthalazin-1-yl)amino)-4-hydroxypyrrolidin-1-yl)prop-2-en-1-one] | 49 | 26 | 19200 | 39 (≈ 17.4 µg/mL) | 7.7
C=CC(=O)N1CC[C@H](Nc2nnc(-c3ccc(C(F)(F)F)cn3)c3cccnc23)C1 [Example 16, (S)-1-(3-((5-(5-(trifluoromethyl)pyridin-2-yl)pyrido[2,3-d]pyridazin-8-yl)amino)pyrrolidin-1-yl)prop-2-en-1-one] | 270 | 354 | > 31700 | 114 (≈ 47.2 µg/mL) | 25.0
CC#CC(=O)N1CC[C@H](Nc2nnc(-c3ccc(C(F)(F)F)cc3)c3ccccc23)C1 [Example 20, (S)-1-(3-((4-(4-(trifluoromethyl)phenyl)phthalazin-1-yl)amino)pyrrolidin-1-yl)but-2-yn-1-one] |  | 432 | 22500 | 33 (≈ 14 µg/mL) | 2.0
C=CC(=O)N1C[C@H](F)[C@H](Nc2ncc(-c3ccc(C(F)(F)F)cc3)c3ncccc23)C1 [Example 44, 1-((3S,4R)-3-fluoro-4-((8-(4-(trifluoromethyl)phenyl)-1,6-naphthyridin-5-yl)amino)pyrrolidin-1-yl)prop-2-en-1-one] | 16 | 22 | 18000 | 3 (≈ 1.29 µg/mL) | 

More lines, in order of falling IC50 (MCF7-Tead cell line), values ahead:

IC50 (TEAD4(217-434)) [nM] | IC50 (MCF7-Tead cell line) [nM] | IC50 [1] [nM] | solubility at 24 h [2] [µM] | Hu PPB (% free) [3] [% free] | SMILES
 | 351 | > 31700 | 3 (≈ 1.24 µg/mL) | 1.6 | C=CC(=O)NC1(CNc2nnc(-c3ccc(C(F)(F)F)cc3)c3ccccc23)CC1 [Example 40, N-(1-(((4-(4-(trifluoromethyl)phenyl)phthalazin-1-yl)amino)methyl)cyclopropyl)acrylamide]
78 | 297 | 29900 | 158 (≈ 71 µg/mL) | 6.2 | C=C(F)C(=O)N1C[C@H](F)[C@H](Nc2nnc(-c3ccc(C(F)(F)F)cc3)c3cccnc23)C1 [Example 6, 2-fluoro-1-((3S,4R)-3-fluoro-4-((5-(4-(trifluoromethyl)phenyl)pyrido[2,3-d]pyridazin-8-yl)amino)pyrrolidin-1-yl)prop-2-en-1-one]
27 | 62 | > 31700 | 244 (≈ 110 µg/mL) | 7.7 | C=C(F)C(=O)N1C[C@H](F)[C@H](Nc2nnc(-c3ccc(C(F)(F)F)cc3)c3ncccc23)C1 [Example 5, 2-fluoro-1-((3S,4R)-3-fluoro-4-((8-(4-(trifluoromethyl)phenyl)pyrido[2,3-d]pyridazin-5-yl)amino)pyrrolidin-1-yl)prop-2-en-1-one]
 | 34 | > 31700 | 191 (≈ 79 µg/mL) | 12.5 | C=CC(=O)N1CC[C@H](Nc2ncc(-c3ccc(C(F)(F)F)cn3)c3ncccc23)C1 [Example 38, (S)-1-(3-((8-(5-(trifluoromethyl)pyridin-2-yl)-1,6-naphthyridin-5-yl)amino)pyrrolidin-1-yl)prop-2-en-1-one]
25 | 15 | 30800 | 135 (≈ 62.2 µg/mL) | 11.0 | C=CC(=O)N1C[C@@H](CO)[C@H](Nc2nnc(-c3ccc(C(F)(F)F)cc3)c3cccc(F)c23)C1 [Example 15, 1-((3S,4R)-3-((8-fluoro-4-(4-(trifluoromethyl)phenyl)phthalazin-1-yl)amino)-4-(hydroxymethyl)pyrrolidin-1-yl)prop-2-en-1-one]
12 | 11 | 13300 | 16 (≈ 6.9 µg/mL) |  | C=CC(=O)N1C[C@H](F)[C@H](Nc2ncc(-c3ccc(C(F)(F)F)cc3)c3nccnc23)C1 [Example 43, 1-((3S,4R)-3-fluoro-4-((8-(4-(trifluoromethyl)phenyl)pyrido[3,4-b]pyrazin-5-yl)amino)pyrrolidin-1-yl)prop-2-en-1-one]
